Experimental findings from patent US20110281788A1, “ANTI FUNGAL THERAPY” (priority 2008, published 2011) are described below.

Where two headings read alike, the source gives them in different places. Where a SMILES comes first, the peptide text is derived from it. Where no end group is shown, it is not given here.

For assay [1], the system named is yeast (Saccharomyces cerevisiae). Nature of the assay: Disc diffusion assay of yeast growth inhibition (FIG. 1 A-G). The assay is classed as cell-based. The text has this: The data shown in FIG. 1(h)-(n) are for the highly resistant yeast Candida glabrata which is difficult to treat due to its high intrinsic resistance to traditional antifungals. The data shown in FIGS. 1(o)-(u) are for Candida albicans. As above, the panels (h) through (u) show the effect of an echinocandin compound, an antimicrobial peptide and a combination of the two on Candida glabrata and Candida albicans.
Sterile filter paper discs (6 mm, Aa, Whatman) were impregnated with either, peptides or caspofungin alone, or peptides and caspofungin together, and left in sterile Petri dishes overnight at room temperature to dry. Following this, 100 μl of mid-exponential phase culture of yeast was spread onto the surface of MEB, pH 7 plus 2% agarose plates and left to dry for 1 h at room temperature. MEB plates were made with 2% agarose rather than agar because the agar inhibited the action of the antimicrobial peptides. Discs containing the various antifungal combinations were then applied to the surface and the plates were incubated at 30° C. for 48 h. Images showing the zones of inhibition were obtained by scanning the plates using an ImageScanner (GE Healthcare UK Ltd, Chalfont St Giles, UK) with ImageMaster Labscan v 3.00 software (GE Healthcare UK Ltd). Images were annotated using Microsoft PhotoDraw.
Background: A growth-free zone around the sample is the usual read-out of agar diffusion tests.

A further assay deals with yeast. Nature of the assay: Liquid culture assay of yeast growth inhibition, OD600 growth curves (FIG. 4). The assay is classed as cell-based. To be noted: sub-inhibitory peptide combined with sub-inhibitory caspofungin. The procedure:
The lines represent: Blue—untreated yeast culture alone; Yellow—yeast culture in the presence of a subinhibitory concentration of caspofungin alone; Green—yeast culture in the presence of a subinhibitory concentration of an antimicrobial peptide alone; Red—culture in the presence of a combination of sub-inhibitory caspofungin with sub-inhibitory peptide.
Sterile MEB, pH 7 was added (300 μl) to each well of 48-well microtitre plate (Greiner Bio-one Ltd, Stonehouse, UK) followed by appropriate concentrations of each peptide alone, caspofungin alone and various combinations of peptides with caspofungin. The wells were then inoculated with mid-exponential phase yeast cultures to give starting cell numbers of 1000 cells per well. […] OD600 readings were taken every 15 minutes. Data was analysed in Microsoft Excel.

Another assay deals with C. albicans SC5314. The assay is classed as cell-based, Candida albicans. The settings on record: RPMI-1640, <0.5 synergy, >4 antagonism, 0.5 to 4 no interaction. As to the method: (§1) 96-well micro-titre plate (Greiner Bio-one Ltd, Stonehouse, UK) wells were filled with 150 μl MEB or RPMI-1640, 2% MOPS (Sigma), pH 7 and concentrations of either peptides or caspofungin alone, or combinations of peptides with caspofungin. Approximately 500 cells from mid-exponential phase cultures of the yeast strains described above were then added to each well. Plates were incubated at 30° C. for 48 hours and scanned as described above.
(§2) Fractional inhibitory concentration (FIC) indices for combinations of caspofungin or anidulafungin with various antimicrobial peptides calculated from chequerboard assays of visible growth inhibition of three Candida strains tested in RPMI-1640. IC values highlighted in grey indicate combinations where no synergy was observed. Fractional Inhibitory Concentration (FIC)=[…] where <0.5 synergy, >4 antagonism and 0.5 to 4 no interaction. (Odds, F. C. (2003) Synergy, antagonism, and what the chequerboard puts between them. J. Antimic. Chemother.) N/A—not tested.

For assay [2], the system named is C. albicans (Hospital isolate). The assay is classed as cell-based, Candida albicans. The settings on record: RPMI-1640, <0.5 synergy, >4 antagonism, 0.5 to 4 no interaction. As to the method:
as §1, §2

For assay [3], the system named is C. glabrata (Hospital isolate). The class given is cell-based, Candida glabrata. To be noted: RPMI-1640, <0.5 synergy, >4 antagonism, 0.5 to 4 no interaction. As to the method:
as §1, §2

[4] abbreviates: peptide applied together with caspofungin.
[5] abbreviates: substance alone, at the concentrations displayed.
Setting [6] is: peptide combined with anidulafungin.
Setting [7] is: peptide combined with caspofungin.

In the case of `CC[C@H](C)[C@H](NC(=O)[C@H](CCSC)NC(=O)[C@H](C)NC(=O)[C@@H]1CCCN1C(=O)[C@@H](NC(=O)[C@@H](NC(=O)[C@H](CCCCN)NC(=O)[C@@H](NC(=O)[C@H](CC(C)C)NC(=O)CNC(=O)CNC(=O)[C@H](CC(C)C)NC(=O)[C@@H](N)Cc1ccccc1)[C@@H](C)CC)[C@@H](C)CC)C(C)C)C(=O)N[C@H]1CSSC[C@@H](C(=O)O)NC(=O)[C@H](CCCCN)NC(=O)[C@H](CCCCN)NC(=O)[C@H]([C@@H](C)O)NC(=O)[C@H](C(C)C)NC(=O)[C@H](C)NC1=O` [Ranalexin, ranalexin] (HELM PEPTIDE1{F.L.G.G.L.I.K.I.V.P.A.M.I.C.A.V.T.K.K.C}$PEPTIDE1,PEPTIDE1,14:R3-20:R3$$$V2.0; N-terminus and C-terminus assumed; bridges inferred), the “zones of clearing around impregnated filter paper discs on agar plates” value (from here on “zones”) is “very clear zones of clearing” in assay [1] (setting [4]) and “minimal effect on yeast growth” in assay [1] (setting [5]). Besides, the “yeast growth (OD600) over 24 h in microtitre plate wells” value (from here on “yeast growth (OD600) over 24 h”) with yeast is on record as “complete abolition of yeast growth”.
For the molecule `CC[C@H](C)C[C@H](C)CCCCCCCCC(=O)N[C@H]1C[C@@H](O)[C@@H](NCCN)NC(=O)[C@@H]2[C@@H](O)CCN2C(=O)[C@H]([C@H](O)CCN)NC(=O)[C@H]([C@H](O)[C@@H](O)c2ccc(O)cc2)NC(=O)[C@@H]2C[C@@H](O)CN2C(=O)[C@H]([C@@H](C)O)NC1=O` [caspofungin, 1-[(4R,5S)-5[(2-aminoethyl)amino]-N^2-(10,12-dimethyl-1-oxotetradecyl)-4-hydroxy-L-ornithine]-5-[(3R)-3-hydroxy-L-ornithine]pneumocandin B0], the “zones” value in assay [1] (setting [5]) is “no zones of clearing”.
For the molecule “ALWKNMLKGIGKLAGK [DsS3(1-16), dermaseptin S3(1-16)]”, the figures for the “zones” value in assay [1] (setting [4]) and in assay [1] (setting [5]) were “Evident zones of clearing” and “no zones of clearing visible”, respectively. For the same molecule, in the assay on yeast, the “yeast growth (OD600) over 24 h” value is on record as “complete abolition of yeast growth”.
Colistin sulfate: the “Fractional inhibitory concentration (FIC) index” value in the assay on C. albicans SC5314 (setting [6]) is 0.230; in the assay with C. albicans SC5314 (setting [7]) it was 0.249.
For “GIGKFLHSAKKFGKAFVGEIMNS [Magainin 2, magainin 2]”, the “Fractional inhibitory concentration (FIC) index” value in assay [2] (setting [6]) is reported as 0.087; in assay [2] (setting [7]) it was 0.135; in the assay on C. albicans SC5314 (setting [6]), 0.095; in the assay on C. albicans SC5314 (setting [7]), 0.144; in assay [3] (setting [6]) it was 0.376; in assay [3] (setting [7]), 0.278. In addition, the entries for the “zones” value in assay [1] (setting [4]) and in assay [1] (setting [5]) were “very clear zones of clearing” and “minimal effect on yeast growth”, respectively. The “yeast growth (OD600) over 24 h” value with yeast is “complete abolition of yeast growth”.
For the molecule Polymyxin B, the “Fractional inhibitory concentration (FIC) index” value with C. albicans SC5314 (setting [6]) amounted to 0.590; with C. albicans SC5314 (setting [7]) it was 0.310.
